Results taken from PMC6152234, “Specialized Metabolites of the Lichen Vulpicida pinastri Act as Photoprotective Agents” (Molecules : A Journal of Synthetic Chemistry and Natural …, 2017).
Values after ≈ are worked out from the molar mass of the structure shown. Like-named read-outs stand apart in the source and are kept apart here. Marks after values point to notes of the source that are not given here.

Columns and labels:
[1] = cited from earlier work; for SPF: commercial organic UV-filters, lower limit for commercial sunscreen 6
[2] = DPPH assay (reducing activity); assay type: biochemical
Experimental: Reducing activity of compounds 1–3 and crude extract on the 1,1′-diphenyl-2-picrylhydrazyl free radical (DPPH) and scavenging activity on superoxide anion were measured as previously described. Briefly, the scavenging activity of the lichen compounds on DPPH was measured using the Matsukawa method with some modifications. A reaction mixture containing 100 µL of DPPH (0.5 mM) in methanol and 10 µL of the lichen compound solutions in DMSO to give final concentrations of 19, 56, 167 and 500 µg/mL per well, was distributed in each microplate well. To allow results comparison and due to the presence of extract, concentrations are expressed in µg/mL. The absorbances were recorded at 540 nm after 30 min.
(§1) For both assays, each concentration and all tests were done in triplicate and the results averaged. Ascorbic acid was used as a positive control. The percentage inhibition at steady state for each dilution was used to calculate the IC50 values. This gave the amount of antioxidant required (measured as the concentration of the stock solution added to the reaction mixture) to either scavenge 50% of O2^− or 50% of DPPH radicals: the lower the values, the higher the scavenging activity towards O2^−.

[3] = NBT assay (superoxide anion scavenging, non-enzymatic NADH/PMS); assay type: biochemical
Experimental: Measurements of superoxide anion scavenging activity in 96-well microplates was based on the non-enzymatic method previously described with some modifications. The reaction mixture in the sample wells consisted of NADH (78 µM), nitro-blue tetrazolium (NBT) (50 µM), phenazine methosulfate (PMS) (10 µM), and lichen compounds (10, 20, 40, 80 µg/mL). The reagents were dissolved in 16 mM tris-hydrochloride buffer, at pH = 8 except for all the lichen compounds/extract which were dissolved in DMSO. After 5 min of incubation at room temperature, the spectrophotometric measurement was performed at 560 nm against blanks (without PMS nor sample).
as §1

HaCaT cells [4] = test: Cytotoxic and photocytotoxic activities before and after UVA irradiation; assay type: cell-based, human; details: for IC50: Homo sapiens, light or radiation study; for Photo-Irritancy Factor (PIF), formal PIF: formal PIF = *1.0 = Cmax(−UV)/Cmax(+UV)
Experimental: Briefly, 100 µL per well of a cell suspension of HaCaT cells (ATCC) at 120,000 cells/mL were maintained in a RPMI culture medium with 5% of calf serum at 37 °C under 5% CO2 for 24 h for formation of monolayers. At t = 24 h, two 96-well plates per test chemical were preincubated for 1 h with seven different concentrations of the tested compounds and extract (ranging from 1 µg/mL to 200 µg/mL). Chlorpromazine was used as the positive control. To allow results comparison and due to the presence of extract, concentrations are expressed in µg/mL.
For both assays, each concentration and all tests were done in triplicate and the results averaged. The percentage inhibition at steady state for each dilution was used to calculate the IC50 values.

[5] = In vitro screening method for sun protection indexes (SPF, PF-UVA, λc, ISP, SUI) from UV absorbance 290–400 nm; assay type: physicochemical
Experimental: Photoprotective effectiveness is evaluated through photoprotective indexes such as SPF, PF-UVA, and critical wavelength (λc) (an indicator of the filter capacity to protect in the UVA range), as well as Spectral Uniformity Index (SUI) and Ideal Spectral Profile (ISP), two indexes recently defined by Diffey to focus on protection across the entire ultraviolet spectrum. They calculate the goodness of fit of the spectral profile to the ideal flat profile. SPF and PF-UVA measure the filter efficacy against UVB or UVA. SPF measurement is currently determined in vivo through determination of the erythemal reaction on human volunteers. For economical and ethical reasons, many alternative in vitro methods have been developed to measure SPF and also PF-UVA, λc or SUI and ISP. Unfortunately, despite concerted efforts around the globe between different commissions, none of them guarantees a good correlation with in vivo measurements. Moreover, all these in vitro methods require an amount of active raw material generally ≥100 mg and prevent the evaluation of compounds in minute amounts. The photoprotective indexes have been then determined thanks to a new method (see SM) especially developed to cope with the low availability of the compounds. Twelve commercial organic UV-filters, the photoprotective indexes of which were published (Table S3 in SM), encompassing a 1–24 SPF range were used for the development. It can be noted that the SPF values of benzophenone-3 (oxybenzone), PEG-25 PABA, homosalate, polysilicone 15 and 4-Methylbenzylidene Camphor are under 6, the value commonly accepted as the lower limit for commercial sunscreen. However, the efficient value of commercialized emulsion can be explained by the formulation of several organic and mineral filters. The similarity of the results (r^2 = 0.98 for published SPF vs. herein SPF, see Figure S1 in SM) supported the new method validity. Routinely, ethylhexyl methoxycinnamate (OMC) was used as positive control. Based on the SPF, λc, PF-UVA, SUI and ISP values obtained with marketed organic filters and on their UV range protection (Table S3 in SM), a decision tree was built to categorize the filters (Figure 3). Considering the herein SPF values of the filters cited above (around 2), the first condition to select a candidate is SPF > 2. Restricted UVA or UVB filters can be discriminated through the λc value (>370 nm) and PF-UVA (>2) for UVA and SUI (>1.2) and ISP (<90) for UVB. A large spectral protection (UVA + UVB) could be evaluated by combining the four criteria.
A new in vitro screening method based on spectrophotometric data was used to evaluate sun protection indexes such as SPF, PF-UVA, the critical wavelength λc, ISP and SUI. Its development was first conducted in a cuvette using twelve commercial organic filters encompassing a large range of SPF values (1 < SPF < 25) and then transposed in a 96-wells plate. Following the International recommendations, maximal concentrations never overtook 10% whatever the commercial filters or the lichens extracts or compounds considered. This new method faces some product availability limitation, which is a common shortcoming for natural products or metabolites (see all development in SM).
The scheme of solution preparation to record the experimental values is depicted in Figure 9. The sample (S4) was prepared at 0.02 mg/mL from stock solutions of filter candidate (S2) and of emulsion (S1) (See emulsion preparation in SM) taking into account the maximal concentration. The experimental absorbances Aλ were recorded in the 290–400 nm range versus a blank solution (S3) in a cuvette with a double beam spectrophotometer or in a 96-wells plate filled with 180 µL of solution by well. […] The diagram is described for final volumes of 50 mL, 100 µL, 25 mL and 25 mL for S1, S2, S3 and S4 solutions, respectively. Smaller volumes can easily be prepared. Solutions S2 and S4 were prepared in duplicate. […]

[6] = Stability of photoprotection indexes after UVA or UVB irradiation; assay type: physicochemical; details: for photostability: UVA and UVB
Experimental: One hundred eighty microliters of solution in 96-well plates were irradiated by UVA (2 J/cm^2) or UVB ([…]). The absorbances were then recorded and photoprotective indexes were calculated as described above. The stability was evaluated by comparison between indexes described previously (Section 3.5.1) and obtained before and after irradiation. Two independently prepared solutions were studied and OMC was used as a positive control.

[7] = NBT antioxidant assay of compounds in combination (isobologram, combination index); assay type: biochemical
Experimental: For each drug ratio (Tables S5 and S6 in SM), the antioxidant inhibition was evaluated as previously described (2.6.1).
The antagonistic, synergistic or additive effect of the combination depends on the combination index value (CI) (Equation (1)). […] (IC50)X is the value of the IC50 of compound X alone.
For both assays, each concentration and all tests were done in triplicate and the results averaged.

HaCaT cells [8] = details: human
Experimental: For each drug ratio (Tables S7 and S8 in SM), the cytotoxicity was evaluated as previously described (2.7.1).
For both assays, each concentration was done in triplicate and the results averaged.

[9] = design: method as in earlier work; details: ref 37 (Rancan); cited from earlier work
[10] = HaCaT cells, with UVA irradiation, read-out: IC50 ± SD With Irradiation
[11] = HaCaT cells, without irradiation, read-out: IC50 ± SD Without Irradiation
[12] = before irradiation, new in vitro method

Cc1ccc(/C=C2/C(=O)C3(C)CCC2C3(C)C)cc1 (stereo not drawn) [4-Methylbenzylidene Camphor]
SPF [1]: under 6

O=C1O[C@H]([C@@H](O)CO)C(O)=C1O [Ascorbic acid, reference compound]
DPPH Assay IC50 ± SD [2]: 12.5 ± 0.5 µg/mL
NBT Assay IC50 ± SD [3]: 3.0 ± 0.4 µg/mL

CN(C)CCCN1c2ccccc2Sc2ccc(Cl)cc21 [Chlorpromazine, reference compound]
IC50 (HaCaT cells [4]; [10]): 2.4 ± 0.3 µg/mL (≈ 7.53 µM)
IC50 (HaCaT cells [4]; [11]): 13.2 ± 1.7 µg/mL (≈ 41.4 µM)
Photo-Irritancy Factor (PIF) (HaCaT cells [4]; PIF = IC50(−UV)/IC50(+UV), PIF < 5 no phototoxic potential): 5.5 ^d

CCCCC(CC)COC(=O)C=Cc1ccc(OC)cc1 (stereo not drawn) [OMC, ethylhexyl methoxycinnamate, reference compound]
ISP (Ideal Spectral Profile) ([5]; before irradiation): 105%
PF-UVA ([5]; before irradiation): 1.6
SUI (Spectral Uniformity Index) ([5]; before irradiation): 1.1
critical wavelength (λc) ([5]; before irradiation): 330 nm
SPF [5, 12]: 10.4
SPF ([5]; cuvette, dissolved in DMSO): 10.1
SPF ([5]; cuvette, dissolved in THF): 9.6
decrease in indexes after irradiation ([6]; UVA or UVB irradiation): 25%

COC(=O)/C(=C1/OC(=O)C(c2ccc(OC)cc2)=C1O)c1ccccc1 [Pinastric acid, pinastric acid]
ISP (Ideal Spectral Profile) ([5]; before irradiation): 61%
PF-UVA ([5]; before irradiation): 1.8
SUI (Spectral Uniformity Index) ([5]; before irradiation): 1.9
critical wavelength (λc) ([5]; before irradiation): 386 nm
SPF [5, 12]: 4.1
Superoxide anion scavenging activity (% inhibition) ([7]; Table S7, pinastric acid alone 17.5 µg/mL): 25.0%
Superoxide anion scavenging activity (% inhibition) ([7]; Table S7, pinastric acid alone 35.0 µg/mL): 37.0%
Superoxide anion scavenging activity (% inhibition) ([7]; Table S7, pinastric acid alone 52.5 µg/mL): 44.0%
Superoxide anion scavenging activity (% inhibition) ([7]; Table S7, pinastric acid alone 70.0 µg/mL): 50.0%
DPPH Assay IC50 ± SD [2]: 80.0 ± 8.0 µg/mL
photostability [6]: photostable in the UVA and UVB ranges
NBT Assay IC50 ± SD [3]: 70.0 ± 23.0 µg/mL
IC50 (HaCaT cells [4]; [10]): > 200 µg/mL
IC50 (HaCaT cells [4]; [11]): > 200 µg/mL
Photo-Irritancy Factor (PIF), formal PIF (HaCaT cells [4]): *1.0 ^c

COC(=O)/C(=C1/OC(=O)C(c2ccccc2)=C1O)c1ccccc1 [Vulpinic acid, vulpinic acid]
ISP (Ideal Spectral Profile) ([5]; before irradiation): 19%
PF-UVA ([5]; before irradiation): 3.9
SUI (Spectral Uniformity Index) ([5]; before irradiation): 7.6
Superoxide anion scavenging activity (% inhibition) ([7]; Table S6, vulpinic acid alone 7.5 µg/mL): 22.0%
Superoxide anion scavenging activity (% inhibition) ([7]; Table S6, vulpinic acid alone 15.0 µg/mL): 30.0%
Superoxide anion scavenging activity (% inhibition) ([7]; Table S6, vulpinic acid alone 22.5 µg/mL): 42.0%
Superoxide anion scavenging activity (% inhibition) ([7]; Table S6, vulpinic acid alone 30.0 µg/mL): 50.0%
DPPH Assay IC50 ± SD [2]: 55.0 ± 8.0 µg/mL
Percentage of cytotoxicity (HaCaT cells [8]; 5 µg/mL): 0.0%
Percentage of cytotoxicity (HaCaT cells [8]; 20 µg/mL): 0.0%
photostability [6]: photostable in the UVA and UVB ranges
NBT Assay IC50 ± SD [3]: 30.0 ± 3.0 µg/mL
IC50 (HaCaT cells [4]; [10]): > 200 µg/mL
IC50 (HaCaT cells [4]; [11]): > 200 µg/mL
Photo-Irritancy Factor (PIF), formal PIF (HaCaT cells [4]): *1.0 ^c

CCCCC(CC)COc1ccc(-c2nc(-c3ccc(OC)cc3)nc(-c3ccc(OCC(CC)CCCC)cc3O)n2)c(O)c1 (stereo not drawn) [anisotriazine, Bis-Ethylhexyloxyphenol Methoxytphenyl Triazine, reference compound]
SPF ([5]; cuvette, dissolved in DMSO): 1.8
published SPF ([1]; reference value, ref 6–8 of supplement): 23.9

COc1ccc(C(=O)c2ccccc2)c(O)c1 [benzophenone-3 (oxybenzone), benzophenone-3]
SPF [1]: under 6

CC1CC(OC(=O)c2ccccc2O)CC(C)(C)C1 (stereo not drawn) [homosalate]
SPF [1]: under 6

PEG-25 PABA
SPF [1]: under 6

usnic acid
ISP (Ideal Spectral Profile) ([5]; before irradiation): 53%
PF-UVA ([5]; before irradiation): 1.8
critical wavelength (λc) ([5]; before irradiation): 364 nm
SPF [5, 12]: 3.9
Superoxide anion scavenging activity (% inhibition) ([7]; Table S6, usnic acid alone 6.0 µg/mL): 32.0%
Superoxide anion scavenging activity (% inhibition) ([7]; Table S6, usnic acid alone 12.0 µg/mL): 40.0%
Superoxide anion scavenging activity (% inhibition) ([7]; Table S6, usnic acid alone 18.0 µg/mL): 46.0%
Superoxide anion scavenging activity (% inhibition) ([7]; Table S6, usnic acid alone 24.0 µg/mL): 50.0%
Superoxide anion scavenging activity (% inhibition) ([7]; Table S7, usnic acid alone 6.0 µg/mL): 32.0%
Superoxide anion scavenging activity (% inhibition) ([7]; Table S7, usnic acid alone 12.0 µg/mL): 40.0%
Superoxide anion scavenging activity (% inhibition) ([7]; Table S7, usnic acid alone 18.0 µg/mL): 46.0%
Superoxide anion scavenging activity (% inhibition) ([7]; Table S7, usnic acid alone 24.0 µg/mL): 50.0%
DPPH Assay IC50 ± SD [2]: >500.0 µg/mL
variation in the SPF values after UVA irradiation ([6]; UVA 2 J/cm^2): +17%
photostability [6]: photostable in the UVA and UVB ranges
NBT Assay IC50 ± SD [3]: 24.0 ± 9 µg/mL
IC50 ± SD With Irradiation (HaCaT cells [4]; HaCaT cells, with UVA irradiation): 47.0 ± 10.0 µg/mL
IC50 ± SD Without Irradiation (HaCaT cells [4]; HaCaT cells, without irradiation): 33.0 ± 2.0 µg/mL
phototoxic potential (HaCaT cells [4]; from PIF, human keratinocyte cell line, UVA): no phototoxic potential
in vivo SPF [9]: 4.1
